PubChem BioAssay AID248 (DTP/NCI, 2004)
Several values for one entry are separate records, joined by “and”; a condition that tells them apart may be missing. Equal entries are not always repeated. Inconclusive results and toxic doses are left out.

Tested on: L1210 leukemia ip in BDF1 mice, survival T/C
Test: NCI In Vivo Anticancer Drug Screen. Data for tumor model L1210 Leukemia (intraperitoneal) in B6D2F1 (BDF1) mice
Settings: endpoint: mean survival time, higher = longer survival
In short: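 Ratio derived from survival: compound-dosed mice over vehicle-dosed mice, all bearing a transplantable tumor.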

[1] = dose: 100.0 mg/kg/injection, schedule: Q04DX003 (ip), vehicle: saline with Tween-80
[2] = dose: 100.0 mg/kg/injection, schedule: Q01DX009 (ip), vehicle: Klucel (hydroxypropylcellulose) (HPC)
[3] = dose: 100.0 mg/kg/injection, schedule: Q04DX003 (ip), vehicle: Klucel (hydroxypropylcellulose) (HPC)
[4] = dose: 200.0 mg/kg/injection, schedule: Q01DX009 (ip), vehicle: Klucel (hydroxypropylcellulose) (HPC)
[5] = dose: 200.0 mg/kg/injection, schedule: Q04DX003 (ip), vehicle: Klucel (hydroxypropylcellulose) (HPC)
[6] = dose: 400.0 mg/kg/injection, schedule: Q01DX009 (ip), vehicle: Klucel (hydroxypropylcellulose) (HPC)
[7] = dose: 400.0 mg/kg/injection, schedule: Q04DX003 (ip), vehicle: Klucel (hydroxypropylcellulose) (HPC)
[8] = dose: 400.0 mg/kg/injection, schedule: Q04DX002 (ip), vehicle: saline with Tween-80
[9] = dose: 100.0 mg/kg/injection, schedule: Q01DX001 (ip), vehicle: Klucel (hydroxypropylcellulose) (HPC)
[10] = dose: 200.0 mg/kg/injection, schedule: Q01DX001 (ip), vehicle: Klucel (hydroxypropylcellulose) (HPC)
[11] = dose: 400.0 mg/kg/injection, schedule: Q01DX001 (ip), vehicle: Klucel (hydroxypropylcellulose) (HPC)
[12] = dose: 25.0 mg/kg/injection, schedule: Q01DX009 (ip), vehicle: saline
[13] = dose: 50.0 mg/kg/injection, schedule: Q01DX009 (ip), vehicle: saline

`O=C(/C=C/c1ccc(Cl)c(Cl)c1)c1ccc(Cl)cc1` was tested, and the T/C (dose: 6.25 mg/kg/injection, schedule: Q01DX009 (ip), vehicle: saline with Tween-80) was 97 % of control, the T/C (dose: 6.25 mg/kg/injection, schedule: Q04DX003 (ip), vehicle: saline with Tween-80) was 110 % of control and the T/C (dose: 12.5 mg/kg/injection, schedule: Q01DX009 (ip), vehicle: saline with Tween-80) was 97 % of control. For the same compound, the T/C (dose: 12.5 mg/kg/injection, schedule: Q04DX003 (ip), vehicle: saline with Tween-80) was 96 % of control, the T/C (dose: 25.0 mg/kg/injection, schedule: Q01DX009 (ip), vehicle: saline with Tween-80) was 95 % of control and the T/C (dose: 25.0 mg/kg/injection, schedule: Q04DX003 (ip), vehicle: saline with Tween-80) was 94 % of control and 89 % of control. For the same compound, the T/C [1] was 87 % of control and 88 % of control.
`N=C(N)N=Nc1cc(O)c(NN=C(N)N)cc1O` was tested, and the T/C (dose: 7.5 mg/kg/injection, schedule: Q01DX Z (oral), vehicle: saline) was 95 % of control, the T/C (dose: 15.0 mg/kg/injection, schedule: Q01DX Z (ip), vehicle: saline) was 98 % of control and the T/C (dose: 15.0 mg/kg/injection, schedule: Q01DX Z (oral), vehicle: saline) was 96 % of control. The T/C (dose: 30.0 mg/kg/injection, schedule: Q01DX Z (oral), vehicle: saline) was 98 % of control.
`O=C(Nc1cccc(Cl)c1)OCC(Cl)(Cl)Cl` was tested, and the T/C [2] was 88 % of control, the T/C [3] was 98 % of control and the T/C [4] was 95 % of control. For the same compound, the T/C [5] was 104 % of control, the T/C [6] was 92 % of control and the T/C [7] was 100 % of control.
For `Cc1ccc(NC(=O)COc2cc(Cl)c(Cl)cc2Cl)c([N+](=O)[O-])c1`, the T/C [2] was 105 % of control, the T/C [3] was 106 % of control and the T/C [4] was 89 % of control. For the same compound, the T/C [5] was 102 % of control, the T/C [6] was 89 % of control and the T/C [7] was 93 % of control.
In the case of `NC(N)=N/N=C\CC(O)CO` (stereo not drawn), the T/C (dose: 15.0 mg/kg/injection, schedule: Q01DX Z (ip), vehicle: methylcellulose (MC)) was 100 % of control, the T/C (dose: 30.0 mg/kg/injection, schedule: Q01DX Z (ip), vehicle: methylcellulose (MC)) was 103 % of control and the T/C (dose: 60.0 mg/kg/injection, schedule: Q01DX Z (ip), vehicle: methylcellulose (MC)) was 100 % of control. For the same compound, the T/C (dose: 60.0 mg/kg/injection, schedule: Q01DX Z (oral), vehicle: methylcellulose (MC)) was 97 % of control, the T/C (dose: 120.0 mg/kg/injection, schedule: Q01DX Z (ip), vehicle: methylcellulose (MC)) was 103 % of control and the T/C (dose: 120.0 mg/kg/injection, schedule: Q01DX Z (oral), vehicle: methylcellulose (MC)) was 94 % of control. The T/C (dose: 240.0 mg/kg/injection, schedule: Q01DX Z (oral), vehicle: methylcellulose (MC)) was 88 % of control and the T/C (dose: 480.0 mg/kg/injection, schedule: Q01DX Z (oral), vehicle: methylcellulose (MC)) was 86 % of control.
For `C=CCN(CC=C)c1nc(Oc2ccccc2)nc(Oc2ccccc2)n1`, the T/C (dose: 25.6 mg/kg/injection, schedule: Q04DX002 (ip), vehicle: saline with Tween-80) was 104 % of control, the T/C (dose: 64.0 mg/kg/injection, schedule: Q04DX002 (ip), vehicle: saline with Tween-80) was 101 % of control and the T/C [1] was 89 % of control. For the same compound, the T/C (dose: 160.0 mg/kg/injection, schedule: Q04DX002 (ip), vehicle: saline with Tween-80) was 93 % of control, the T/C (dose: 200.0 mg/kg/injection, schedule: Q04DX003 (ip), vehicle: saline with Tween-80) was 92 % of control and the T/C [8] was 89 % of control. For the same compound, the T/C (dose: 400.0 mg/kg/injection, schedule: Q04DX003 (ip), vehicle: saline with Tween-80) was 93 % of control.
In the case of `C=C(Cl)CSc1ncnc2nc[nH]c12`, the T/C (dose: 75.0 mg/kg/injection, schedule: Q01DX001 (ip), vehicle: saline) was 98 % of control.
With `CCCCCCC(=O)/C=C/c1ccccc1Cl` the T/C (dose: 100.0 mg/kg/injection, schedule: Q01DX009 (ip), vehicle: other) was 98 % of control, the T/C (dose: 200.0 mg/kg/injection, schedule: Q01DX009 (ip), vehicle: other) was 92 % of control and the T/C (dose: 400.0 mg/kg/injection, schedule: Q01DX009 (ip), vehicle: other) was 93 % of control.
`O=C(NCCCl)Nc1ccc2c(c1)Cc1ccccc1-2` was tested, and the T/C [3] was 108 % of control, the T/C [5] was 93 % of control and the T/C [7] was 101 % of control.
In the case of `O=c1c2c3ccccc3c(=O)c=2c2ccccc12`, the T/C [9] was 98 % of control and the T/C [10] was 103 % of control.
For `Cc1cccc(OS(C)(=O)=O)c1N(S(C)(=O)=O)S(C)(=O)=O`, the T/C (dose: 50.0 mg/kg/injection, schedule: Q01DX001 (ip), vehicle: Klucel (hydroxypropylcellulose) (HPC)) was 97 % of control, the T/C [9] was 108 % of control and the T/C [10] was 95 % of control. The T/C [11] was 95 % of control.
For `Oc1ccc2ccccc2c1CNc1ccccc1`, the T/C (dose: 100.0 mg/kg/injection, schedule: Q04DX003 (ip), vehicle: other) was 88 % of control and the T/C (dose: 200.0 mg/kg/injection, schedule: Q04DX003 (ip), vehicle: other) was 94 % of control.
For `O=C1c2ccccc2C(=O)N1C1C=CC=CC=C1`, the T/C [9] was 95 % of control, the T/C [3] was 91 % of control and the T/C [10] was 93 % of control. The T/C [5] was 91 % of control, the T/C [11] was 90 % of control and the T/C [7] was 93 % of control.
`O=C(NCCCCCCCCCCNC(=O)Nc1ccc(C2=NCCCN2)cc1)Nc1ccc(C2=NCCCN2)cc1` was tested, and the T/C (dose: 3.12 mg/kg/injection, schedule: Q01DX Z (ip), vehicle: carboxymethylcellulose (CMC)) was 108 % of control, the T/C (dose: 6.25 mg/kg/injection, schedule: Q01DX Z (ip), vehicle: carboxymethylcellulose (CMC)) was 111 % of control and the T/C (dose: 9.5 mg/kg/injection, schedule: Q01DX001 (ip), vehicle: other) was 101 % of control. The T/C (dose: 19.0 mg/kg/injection, schedule: Q01DX001 (ip), vehicle: other) was 110 % of control, the T/C (dose: 25.0 mg/kg/injection, schedule: Q01DX Z (ip), vehicle: carboxymethylcellulose (CMC)) was 122 % of control and the T/C (dose: 38.0 mg/kg/injection, schedule: Q01DX001 (ip), vehicle: other) was 101 % of control.
With `Cc1cc(O)c(C(C)C)cc1NC(=O)C(Cl)Cl` the T/C [3] was 98 % of control, the T/C [5] was 101 % of control and the T/C [7] was 107 % of control.
For `COc1ccc(C(SCC(N)C(=O)O)(c2ccccc2)c2ccc(OC)cc2)cc1` (stereo not drawn), the T/C (dose: 3.13 mg/kg/injection, schedule: Q01DX009 (ip), vehicle: saline) was 98 % of control, the T/C (dose: 6.25 mg/kg/injection, schedule: Q01DX009 (ip), vehicle: saline) was 120 % of control and the T/C (dose: 6.3 mg/kg/injection, schedule: Q01DX009 (ip), vehicle: other) was 110 % of control. For the same compound, the T/C (dose: 12.5 mg/kg/injection, schedule: Q01DX009 (ip), vehicle: other) was 117 % of control, the T/C [12] was 158 % of control and the T/C [13] was 96 % of control.
In the case of `CCc1cnc(N)nc1N`, the T/C (dose: 25.0 mg/kg/injection, schedule: Q01DX009 (ip), vehicle: Klucel (hydroxypropylcellulose) (HPC)) was 107 % of control, the T/C (dose: 50.0 mg/kg/injection, schedule: Q01DX009 (ip), vehicle: Klucel (hydroxypropylcellulose) (HPC)) was 101 % of control and the T/C [9] was 107 % of control. The T/C [2] was 104 % of control.
In the case of `O=C(O)CC(SC(c1ccccc1)(c1ccccc1)c1ccccc1)C(=O)O` (stereo not drawn), the T/C [2] was 93 % of control, the T/C [3] was 98 % of control and the T/C [4] was 90 % of control. For the same compound, the T/C [5] was 102 % of control and the T/C [7] was 96 % of control.
`S=P1(Oc2ccccc2)Nc2ccccc2N1c1ccccc1` (stereo not drawn) was tested, and the T/C (dose: 100.0 mg/kg/injection, schedule: Q04DX002 (ip), vehicle: saline with Tween-80) was 92 % of control, the T/C (dose: 200.0 mg/kg/injection, schedule: Q04DX002 (ip), vehicle: saline with Tween-80) was 98 % of control and the T/C [8] was 95 % of control.
With `CC(C)=CCC/C(C)=C/Cn1cnc2c(ncn2C2OC(CO)C(O)C2O)c1=O` (stereo not drawn) the T/C (dose: 12.5 mg/kg/injection, schedule: Q01DX009 (ip), vehicle: saline) was 100 % of control, the T/C (dose: 25.0 mg/kg/injection, schedule: Q01DX005 (ip), vehicle: saline) was 97 % of control and the T/C [12] was 100 % of control. For the same compound, the T/C (dose: 50.0 mg/kg/injection, schedule: Q01DX005 (ip), vehicle: saline) was 108 % of control, the T/C [13] was 92 % of control and the T/C (dose: 100.0 mg/kg/injection, schedule: Q01DX005 (ip), vehicle: saline) was 96 % of control.
With `O=C(COc1ccc(Cl)cc1)NCCc1ccccc1` the T/C [2] was 97 % of control, the T/C [4] was 92 % of control and the T/C [6] was 98 % of control.
`CCOc1ccccc1/C=N/NC(=O)C(O)(c1ccccc1)c1ccccc1` was tested, and the T/C (dose: 100.0 mg/kg/injection, schedule: Q01DX001 (ip), vehicle: carboxymethylcellulose (CMC)) was 101 % of control, the T/C (dose: 200.0 mg/kg/injection, schedule: Q01DX001 (ip), vehicle: carboxymethylcellulose (CMC)) was 101 % of control and the T/C (dose: 400.0 mg/kg/injection, schedule: Q01DX001 (ip), vehicle: carboxymethylcellulose (CMC)) was 97 % of control.
